Consider one compound from patent US20250171744A1, “METHODS OF REPROGRAMMING SOMATIC CELLS AND MATERIALS RELATED THERETO” (CITY OF HOPE, priority 2019, published 2025).

The experiment relates to FPGS^ko cells. Put plainly: Chemical complementation (nutrient supplementation) of FPGS mutants (FIG. 14). The format is cell-based, human. As to the method: The growth medium was supplemented with 1 and 2× essential amino acids (EAAs), and cells were grown for […] (A2-A3). Additionally, to check the growth behavior of the mutant in a different basal medium, regular DMEM and IMDM with 1×NEAAs were tested. To rescue the phenotype of FPGS^ko, 5-CHO-THF (1 mM) with sodium hypoxanthine (10 mM) and thymidine (1.6 mM) mixture (HT; Thermo Fisher Scientific) was exogenously applied to IMDM, respectively (A5, A6), and compared with the FPGS^ko cells (A1) and WT cells […] grown with only solvent as a control. […] All the experiments were carried out in triplicate and cell proliferation was measured using a Cellometer. The number of cells for each cell line is compared with the number of colonies for parental 293T cells. Error bars indicate means±SE (n=4). *P<0.05, **P<0.001.
Chemical complementation assays of FPGS mutants: Cells were maintained as monolayers in DMEM with Gluta-Max (Corning) supplemented with 10% FBS at 37° C. in a 5% CO2 atmosphere. To supplement the growth medium with amino acids, 1× and 2× doses of essential amino acids (Thermo Fisher Scientific) were added in the medium and the cells were grown as previously described for 5 days. […] All the experiments were carried out in triplicate, and cell proliferation was measured using a Cellometer Auto T4 Counting Chamber (Nexcelom Bioscience, Lawrence, MA, USA). […]

Consider `Nc1nc2c(c(=O)[nH]1)N(C=O)[C@@H](CNc1ccc(C(=O)N[C@@H](CCC(=O)O)C(=O)O)cc1)CN2` [5-CHO-THF, 6S-5-formyl-5,6,7,8-tetrahydrofolic acid], for which the “cell growth of FPGS^ko mutant” value (IMDM supplemented with 1 mM 5-CHO-THF and 1×NEAAs) is “substantial increases in cell growth”. Besides, the “growth rate of FPGS^ko mutant” value (IMDM with 1 mM 5-CHO-THF, 1×NEAAs, hypoxanthine (10 mM) and thymidine (1.6 mM)) is “almost full restoration of growth rate”.
